Assays:
Detroit-562 cells [1] = test: Combination studies (single and sequential combination dosing), % cytotoxicity in Detroit-562 cells; conditions: Homo sapiens, Detroit 562, Detroit-562; for cytotoxicity at 14.1 µM: single agent at IC50 (compound B 14.1 μM); for cytotoxicity at 25.2 µM: single agent at IC70 (compound B 25.2 μM)
Description: (§1) Logarithmically growing cells were plated at a density of 3×10^3 cells/well and allowed to recover overnight. […] After 72 hours, cell toxicity was determined by CCK-8 (Cell Counting Kit-8) reagent (Dojindo Molecular Technologies, Japan); WST-8 (2-(2-methoxy-4-nitrophenyl)-3-(4-nitrophenyl)-5-(2, 4-disulfophenyl)]-2H-tetrazolium, monosodium salt) assay. In accordance with the manufacturer's instructions, 5 μl/well CCK-8 reagent was added and plates were incubated for 2 hours. The toxicity was determined by measuring the absorbance on Tecan Sapphire multi-fluorescence micro-plate reader (Tecan, Germany, GmbH) at a wavelength of 450 nm corrected to 650 nm and normalized to controls.
(§2) CCK-8 allows convenient assays using Dojindo's tetrazolium salt, WST [8[(2-(2-methoxy-4-nitrophenyl)-3-(4-nitrophenyl)-5-(2,4-disulfophenyl)-2H-tetrazolium, monosodium salt], which produces a water-soluble formazan dye upon bioreduction in the presence of an electron carrier, 1-Methoxy PMS. CCK-8 solution is added directly to the cells; no pre-mixing of components is required. CCK-8 is a sensitive nonradioactive colorimetric assay for determining the number of viable cells in cell proliferation and cytotoxicity assays. WST-8 is bio-reduced by cellular dehydrogenases to an orange formazan product that is soluble in tissue culture medium. The amount of formazan produced is directly proportional to the number of living cells. The detection sensitivity of cell proliferation assays using WST-8 is higher than assays using the other tetrazolium salts such as MIT, XTT, MTS or WST-1. Optical Density was determined at measurement wavelength of 450 nm and reference wave length of 630 nm.
(§3) Sorafenib in the following dose of final concentration 1.8 μM and compound A in the following doses of final concentration 0.5 μM, 1.3 μM and 12.1 μM were analyzed in single dose and in all possible combinations of the dose range for the two anticancer agents mentioned above. The sequence of treatment is as follows; Detroit-562 cells were treated with sorafenib for 0 to 24 hrs. At the end of 24 hrs the cells were washed two times with plain MEM medium. Fresh MEM with 10% serum (200 μL/well) was added, followed by treatment with compound A from 24 hrs to 96 hrs.
as §3, with “compound B” for “compound A”, “concentration 2.7” for “concentration 0.5”, “μM, 14.1” for “μM, 1.3”, “and 25.2” for “and 12.1”, “follows; the” for “follows;”
as §3, with “Lapatinib” for “Sorafenib”, “1” for “1.8”, “follows; the” for “follows;”, “lapatinib” for “sorafenib”
Lapatinib in the following dose of final concentration 1.0 μM and compound B in the following doses of final concentration 2.7 μM, 14.1 μM and 25.2 μM were analyzed in single dose and in all possible combinations of the dose range for the two drugs mentioned above. The sequence of treatment is as follows; the Detroit-562 cells were treated with lapatinib for 0 to 24 hrs. At the end of 24 hrs the cells were washed two times with plain MEM medium. Fresh MEM with 10% serum (200 μL/well) was added, followed by treatment with compound A from 24 hrs to 96 hrs.

Detroit-562 cells [2] = test: CCK-8 cytotoxicity assay, determination of inhibitory concentrations in Detroit-562 cells; format: cell-based; conditions: 72 hr
Description: as §1, §2
(§4) The cells were seeded at a density of 3000 cells/well, in a 200 μL in tissue culture grade 96 well plate and were allowed to recover for 24 hrs in a humidified 5%±0.2 CO2 incubator at 37° C.±0.5° C. […] The final DMSO concentration was 0.5% in wells. Plates were incubated for 48 hrs in humidified 5%±0.2 CO2 incubator at 37±0.5° C. After 48 hrs the plates were removed from CO2 incubator and 5 μL of Cell counting Kit (CCK-8) per well was added. The same plate was kept at 37° C. for 3 hrs, and allowed to come to room temperature. The absorbance at a wavelength of 450 nm was read on Tecan safire reader. The percent cytotoxicity was calculated using the following formula.

FADU cells = test: cells; conditions: Homo sapiens; for cytotoxicity at 4.1 µM: single agent at IC50 (compound B 4.1 μM); for cytotoxicity at 9.6 µM: single agent at IC70 (compound B 9.6 μM)
SCC-25 cells = test: CCK-8 cytotoxicity assay, determination of inhibitory concentrations in SCC-25 cells; format: cell-based; conditions: SCC-25 cells, 72 hr
Description: as §1, §2, §4

Structure (SMILES): CN1CC[C@@H](c2c(O)cc(O)c3c(=O)cc(-c4ccc(C(F)(F)F)cc4Cl)oc23)[C@@H]1CO.Cl [Compound B, (+)-trans-2-(2-chloro-4-trifluoromethyl-phenyl)-5,7-dihydroxy-8-(2-hydroxymethyl-1-methyl-pyrrolidin-3-yl)-chromen-4-one hydrochloride]
- cytotoxicity at 2.7 µM (Detroit-562 cells [1]; single agent at IC30 (lapatinib 1.0 μM; compound B 2.7 μM)): 15%
- cytotoxicity at 2.7 µM (Detroit-562 cells [1]; single agent at IC30 (sorafenib 1.8 μM; compound B 2.7 μM)): 15%
- cytotoxicity at 14.1 µM (Detroit-562 cells [1]; lapatinib study): 18%
- cytotoxicity at 14.1 µM (Detroit-562 cells [1]; sorafenib study): 19%
- cytotoxicity at 25.2 µM (Detroit-562 cells [1]; lapatinib study): 30%
- cytotoxicity at 25.2 µM (Detroit-562 cells [1]; sorafenib study): 26%
- IC30 (Detroit-562 cells [2]): 2.7 µM
- IC70 (Detroit-562 cells [2]): 25.2 µM
- IC50 (Detroit-562 cells [2]; Homo sapiens): 14.1 µM
- IC90 (Detroit-562 cells [2]; Homo sapiens): 44.6 µM
- cytotoxicity at 2.3 µM (FADU cells; single agent at IC30 (lapatinib 0.8 μM; compound B 2.3 μM)): 21%
- cytotoxicity at 2.3 µM (FADU cells; single agent at IC30 (sorafenib 3.9 μM; compound B 2.3 μM)): 14%
- cytotoxicity at 4.1 µM (FADU cells; lapatinib study): 26%
- cytotoxicity at 4.1 µM (FADU cells; sorafenib study): 20%
- cytotoxicity at 9.6 µM (FADU cells; lapatinib study): 33%
- cytotoxicity at 9.6 µM (FADU cells; sorafenib study): 27%
- IC90 (SCC-25 cells; Homo sapiens): 41.8 µM
- IC50 (SCC-25 cells; Homo sapiens, read-out: IC50): 1.1 µM
- IC30 (SCC-25 cells): 0.2 µM
- IC70 (SCC-25 cells): 4.8 µM

From patent US10980776B2, “Synergistic pharmaceutical combination for the treatment of squamous cell carcinoma of head and neck” (Piramal Enterprises Limited, priority 2011, dated 2021)
